Test results reported in US12312641B2, “Sensitivity marker for antibody-drug conjugate” (priority 2018, dated 2025).
Like-named read-outs stand apart in the source and are kept apart here.

Assays:
[1] = system: Human lung cancer cell line NCI-H1781; test: Cell proliferation inhibition test upon SLFN11 knockdown, NCI-H1781; format: cell-based; details: for Cell proliferation inhibitory effect upon SLFN11 knockdown: NCI-H1781 cell lines, SLFN11 siRNA vs Non-targeting Control; for Fold change (SLFN11/Non-targeting Control): ratio of IC50
Method: (§1) Human lung cancer cell line NCI-H1781 was obtained from ATCC and used for evaluation. NCI-H1781 cells suspended at 2×10^3 cells/mL in RPMI-1640 medium containing 10% bovine fetal serum were seeded in a 10 cm cell culture dish at 10 mL/dish. Twenty-four hours after seeding, 100 pmol of ON-TARGETplus SLFN11 siRNA (Dharmacon Inc.) or ON-TARGETplus Non-targeting Control Pool (Dharmacon Inc.) and 30 μL of Lipofectamine™ RNAiMAX Transfection Reagent (Thermo Fisher Scientific Inc.) were suspended in 1 mL of Opti-MEM medium, and the entire amount of the suspension was added to the medium. After 72 hours, the medium was removed and the dish was washed with PBS, then the cells were dissociated and recovered from the dish using 1 mL of TrypLE™ Express. The recovered cells were suspended at 5×10^4 cells/mL in RPMI-1640 medium containing 10% bovine fetal serum, and seeded in a 96-well cell culture plate at 100 μL/well. Twenty-four hours after seeding, the medium was replaced with a medium containing 100 nM, 33 nM, 11 nM, 3.7 nM, 1.2 nM, 0.41 nM, 0.13 nM, 0.045 nM, or 0 nM of compound (1) or antibody-drug conjugate (1) at 100 μL/well. The molar concentration of antibody-drug conjugate (1) was calculated by setting the average molecular weight to 150,000. Cells were all cultured at 37° C. under 5% CO2. After 72 hours from the medium replacement, ATPlite 1 step detection system (PerkinElmer Inc.) was added at 100 μL/well. The wells were incubated at room temperature for 10 minutes, then the luminescence intensity of each well was measured.
(§2) The cell growth inhibition rate (%) at each condition was calculated using the following calculation formula: Cell growth inhibition rate (%)=100×(1−T/C) • T: Average luminescence intensity of each well to which specimen was added • C: Average luminescence intensity of each well to which 0 nM specimen was added
(§3) The 50% inhibitory concentration at each condition was calculated by fitting to the following calculation formula: Cell viability (%)=(Emax−Emin)×Specimen concentration^γ/((Emax−50)/(50−Emin)×IC50^γ+Specimen concentration^γ)+Emin • Emax: maximum cell growth inhibition rate (%) • Emin: minimum cell growth inhibition rate (%) • IC50: 50% inhibitory concentration • γ: Hill coefficient
(§4) The fitting to the calculation formula was performed using SAS Systems Release 9.2 (SAS Institute Inc.).

[2] = system: Human breast cancer cell line HCC38; test: Cell proliferation inhibition test upon SLFN11 knockdown, HCC38; format: cell-based; details: for Cell proliferation inhibitory effect upon SLFN11 knockdown: HCC38 cell lines, SLFN11 siRNA vs Non-targeting Control; for Fold change (SLFN11/Non-targeting Control): ratio of IC50
Method: as §1, with “breast” for “lung”, “HCC38” for “NCI-H1781”, “2×10^5” for “2×10^3”
as §2
as §3, with “concentration^γ/((max−50)/(50−Emin)×IC50^γ+Specimen” for “concentration^γ/((Emax−50)/(50−Emin)×IC50^γ+Specimen”
as §4

Molecule | IC50 ([1]; Homo sapiens, NCI-H1781, 72 h, read-out: IC50 (nM) Non-targeting Control Pool) | IC50 ([1]; Homo sapiens, NCI-H1781, 72 h, read-out: IC50 (nM) SLFN11 siRNA) | Cell proliferation inhibitory effect upon SLFN11 knockdown [1] | Fold change (SLFN11/Non-targeting Control) ([1]; NCI-H1781 cells) | Cell proliferation inhibitory effect upon SLFN11 knockdown [2] | Fold change (SLFN11/Non-targeting Control) ([2]; HCC38 cells) | IC50 ([2]; Homo sapiens, HCC38, 72 h, read-out: IC50 (nM) Non-targeting Control Pool) | IC50 ([2]; Homo sapiens, HCC38, 72 h, read-out: IC50 (nM) SLFN11 siRNA) | IC50 ([1]; NCI-H1781 cells, Non-targeting Control Pool, 72 hours, ATPlite, read-out: IC50 (nM) Non-targeting Control Pool) | IC50 ([1]; NCI-H1781 cells, SLFN11 siRNA knockdown, 72 hours, ATPlite, read-out: IC50 (nM) SLFN11 siRNA) | IC50 ([2]; HCC38 cells, Non-targeting Control Pool, 72 hours, ATPlite, read-out: IC50 (nM) Non-targeting Control Pool) | IC50 ([2]; HCC38 cells, SLFN11 siRNA knockdown, 72 hours, ATPlite, read-out: IC50 (nM) SLFN11 siRNA)
CC[C@@]1(O)C(=O)OCc2c1cc1n(c2=O)Cc2c-1nc1cc(F)c(C)c3c1c2[C@@H](NC(=O)CO)CC3 [Compound (1)] | 3.3 nM | 15 nM | attenuated by SLFN11 knockdown | 4.5 | attenuated by SLFN11 knockdown | 2.6 | 1.6 nM | 4.2 nM |  |  |  | 
antibody-drug conjugate (1): humanized anti-hTROP2 antibody (SEQ ID NO: 1 residues 20-470, SEQ ID NO: 2 residues 21-234) conjugated to the exatecan-derivative drug-linker via a thioether bond (conjugate, chains of the INN, looked up, exatecan-derivative drug-linker) VH: QVQLVQSGAEVKKPGASVKVSCKASGYTFTTAGMQWVRQAPGQGLEWMGWINTHSGVPKYAEDFKGRVTISADTSTSTAYLQLSSLKSEDTAVYYCARSGFGSSYWYFDVWGQGTLVTVSS VL: DIQMTQSPSSLSASVGDRVTITCKASQDVSTAVAWYQQKPGKAPKLLIYSASYRYTGVPSRFSGSGSGTDFTLTISSLQPEDFAVYYCQQHYITPLTFGQGTKLEIK |  |  | attenuated by SLFN11 knockdown | >12.5 | attenuated by SLFN11 knockdown | >1.8 |  |  | 8 nM | > 100 nM | 56.7 nM | > 100 nM
